# According to paper PMC9889419 (Pharmacological Reports, 2022):
# Where a name gives a salt, the structure may show the parent alone.
# How the values were obtained:
# hERG = biological target: T1, hERG (Homo sapiens, UniProt Q12809); assay: Radioligand binding; conditions: read-out: % of control specific binding
# T1 construct: purchased Eurofins CEREP
# Method: Radioligand binding. Radioligand binding assays were performed at Eurofins CEREP (France). The results are expressed as a percent of control specific binding (measured specific binding*100/control specific binding) and as a percent inhibition of control specific binding (100-(measured specific binding*100)/control specific binding) obtained in the presence of the test compounds. The IC50 values (concentration causing a half-maximal inhibition of control specific binding) and Hill coefficients (nH) were determined by non-linear regression analysis of the competition curves generated with mean replicate values using Hill equation curve fitting (Y = D + [A-D]/[1 + (C/C50)^nH], where Y = specific binding, A = left asymptote of the curve, D = right asymptote of the curve, C = compound concentration, C50 = IC50, and nH = slope factor). […] The inhibition constants (Ki) were calculated using the Cheng Prusoff equation (Ki = IC50/[1 + L/KD], where L = concentration of radioligand in the assay, and KD = affinity of the radioligand for the receptor).
# Acute toxicity (LD50) = conditions: in vivo; for LD50 at 24 h: iv; for LD50 at 72 h: po
# Method: Acute toxicity. The tested compounds were dissolved in 0.9% saline and administered po and injected into the caudal vein (iv) of mouse or rats at the constant volume of 10 mL/kg and 1 mL/kg, respectively. Each dose was given to six animals.
# mice = assay: animal or person; conditions: Mus musculus, ip, read-out: MES ED50
# Method: The assays were carried out within the Epilepsy Therapy Screening Program (ETSP, previously known as the Anticonvulsant Screening Program, ASP), Epilepsy Branch, National Institute of Neurological and Communicative Disorders and Stroke, National Institutes of Health in Rockville, MD, USA [23].
# The obtained compounds were screened for antiseizure activity and neurotoxicity in vivo within the Epilepsy Therapy Screening Program (ETSP, previously known as the Anticonvulsant Screening Program, ASP), Epilepsy Branch, National Institute of Neurological and Communicative Disorders and Stroke, National Institutes of Health in Rockville, MD, USA [23].
# T1 sequence (Q12809 whole entry): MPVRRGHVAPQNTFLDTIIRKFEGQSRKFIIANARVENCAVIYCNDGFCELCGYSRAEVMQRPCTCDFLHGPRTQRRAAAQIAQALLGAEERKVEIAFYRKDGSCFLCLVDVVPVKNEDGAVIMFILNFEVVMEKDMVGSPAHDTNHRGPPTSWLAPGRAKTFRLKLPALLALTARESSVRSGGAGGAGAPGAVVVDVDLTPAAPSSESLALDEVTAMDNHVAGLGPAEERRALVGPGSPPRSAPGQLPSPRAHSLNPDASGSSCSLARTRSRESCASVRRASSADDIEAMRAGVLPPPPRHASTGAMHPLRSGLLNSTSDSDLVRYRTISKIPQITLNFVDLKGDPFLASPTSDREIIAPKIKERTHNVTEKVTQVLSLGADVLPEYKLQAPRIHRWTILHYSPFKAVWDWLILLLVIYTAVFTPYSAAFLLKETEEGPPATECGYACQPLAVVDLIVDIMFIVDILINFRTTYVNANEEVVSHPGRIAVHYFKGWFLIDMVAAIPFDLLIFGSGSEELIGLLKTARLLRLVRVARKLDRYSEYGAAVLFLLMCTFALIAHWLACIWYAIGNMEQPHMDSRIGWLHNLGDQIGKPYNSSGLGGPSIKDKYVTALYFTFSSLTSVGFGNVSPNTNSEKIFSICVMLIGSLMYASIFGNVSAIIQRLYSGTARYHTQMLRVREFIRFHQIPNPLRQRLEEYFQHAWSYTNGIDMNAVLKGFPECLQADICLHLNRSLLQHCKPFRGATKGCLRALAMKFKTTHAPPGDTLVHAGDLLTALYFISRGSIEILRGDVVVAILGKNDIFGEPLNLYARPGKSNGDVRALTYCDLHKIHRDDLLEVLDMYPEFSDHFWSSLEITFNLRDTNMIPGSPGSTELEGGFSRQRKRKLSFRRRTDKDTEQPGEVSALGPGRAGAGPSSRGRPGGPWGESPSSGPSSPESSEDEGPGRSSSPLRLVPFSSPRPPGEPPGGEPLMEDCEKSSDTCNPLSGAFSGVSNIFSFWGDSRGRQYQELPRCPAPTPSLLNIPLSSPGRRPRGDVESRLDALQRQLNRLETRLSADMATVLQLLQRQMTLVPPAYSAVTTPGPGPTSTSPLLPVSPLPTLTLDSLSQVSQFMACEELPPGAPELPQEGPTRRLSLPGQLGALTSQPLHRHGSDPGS
smiles,measurement,setting,value
"CCC(CO)NCCOc1c(C)cccc1Cl (stereo not drawn) [KM-408, R,S-2-((2-(2-chloro-6-methylphenoxy)ethyl)amino)butan-1-ol hydrochloride]",activity at 100 µM,hERG,26.1%
same,LD50 at 24 h,"Acute toxicity (LD50); mouse, mice",19.8 mg/kg
same,LD50 at 72 h,"Acute toxicity (LD50); mouse, mice",246 mg/kg
same,LD50 at 24 h,"Acute toxicity (LD50); rat, rats",22.6 mg/kg
same,LD50 at 72 h,"Acute toxicity (LD50); rat, rats",670 mg/kg
same,ED50,mice,13.3 mg/kg
